Consider 20 compounds from ChEMBL document CHEMBL4715706, “Discovery of Benzotriazolo[4,3-d][1,4]diazepines as Orally Active Inhibitors of BET Bromodomains” (ACS Med Chem Lett, 2016).

Structures are written as SMILES. Some results are limits rather than exact numbers.

The nature of series [1]: Protein binding in rat plasma. Format: ADME, cell-free. The note with it: read-out: PPB (converted).
A short description of series [2]: Intrinsic clearance in dog liver microsomes.
Series [3] can be described thus: Intrinsic clearance in mouse liver microsomes.
The nature of series [4]: Intrinsic clearance in rat liver microsomes.
The nature of series [5]: Protein binding in mouse plasma.
Series [6] is described as follows: Protein binding in dog plasma.
Series [7] concerns the target Bromodomain-containing protein 4 (Homo sapiens, UniProt O60885).
Description: Inhibition of His/FLAG-tagged BRD4 BD1 (unknown origin) using histone H4-TetraAcetylated-biotin peptide as substrate incubated for 20 mins by AlphaLISA assay
The nature of series [8]: Protein binding in human plasma. Format: ADME, cell-free. The note with it: read-out: PPB (converted).
Series [9] in a line: Inhibition of BET in human THP-1 cells assessed as suppression of LPS-induced IL-6 release measured after 16 hrs by chemiluminescence ELISA. Format: cell-based. Conditions: THP-1, 16 h.
Series [10] in a line: Intrinsic clearance in human liver microsomes.

As to `Cc1nnc2n1-c1ccccc1N(c1ccc(Cl)cc1)CC2C` (stereo not given), the fraction unbound is 0.04 in [1], 0.04 in series [5], 0.05 in series [6] and 0.03 in series [8]. The microsomal CLint in series [2] came to 83 µL/min/mg; in [3] it was 110 µL/min/mg; in series [4], 25 µL/min/mg; in series [10], 24 µL/min/mg. Also, the IC50 in series [7] stood at 350 nM. For the same compound, in series [9], the EC50 is 290 nM.
Take `Cc1ccc(-c2ccc3c(c2)N(c2ccc(Cl)cc2)C[C@@H](C)c2nnc(C)n2-3)cn1`: the IC50 in series [7] came out at 46 nM. Moreover, the half-maximal effective concentration (EC50) in [9] is 100 nM.
With `Cc1nnc2n1-c1ccc(-c3ccc(N)nc3)cc1N(c1ccc(Cl)cc1)CC2C` (stereo not given), the fraction unbound in series [1] was 0.03; in series [5], 0.02; in series [6], 0.03; in series [8], 0.02. Moreover, the values for the microsomal CLint in series [2], in [4] and in series [10] were 94 µL/min/mg, 34 µL/min/mg and 6.4 µL/min/mg, respectively. For the same compound, it took 26 nM to reach half-maximal inhibition in series [7] (IC50). Further, in [9], the EC50 came to 16 nM.
Turning to `Cc1nnc2n1-c1ccc(-c3ccc(N)nc3)cc1N(c1ccc(Cl)cc1)C[C@@H]2C`, in series [7], the IC50 was 790 nM. Moreover, the EC50 in [9] was 790 nM.
Turning to `Cc1ncnn1-c1ccc2c(c1)N(c1ccc(Cl)cc1)C[C@@H](C)c1nnc(C)n1-2`, the IC50 in series [7] is 280 nM. Besides, the EC50 in series [9] is 450 nM.
Turning to `Cc1nnc2n1-c1ccccc1N(c1ccc(Cl)cc1)CC2`, the fraction unbound in series [1] was 0.05; in [5], 0.07; in series [6], 0.05; in series [8], 0.05. Further, the microsomal CLint in series [2] was found to be 390 µL/min/mg; in series [3], 500 µL/min/mg; in series [4], 126 µL/min/mg; in [10], 154 µL/min/mg. In series [7], this compound yielded an IC50 of 1560 nM. For the same compound, the EC50 in [9] came out at 2300 nM.
For the compound `CCNC(=O)CC1CN(c2ccc(Cl)cc2)c2ccccc2-n2c(C)nnc21` (stereo not given), the fraction unbound was 0.13 in [1], 0.08 in [5], 0.09 in [6] and 0.09 in series [8]. For the same compound, the microsomal CLint in series [2] amounted to 33 µL/min/mg; in [3], 52 µL/min/mg; in series [4] it was 74 µL/min/mg; in series [10], 44 µL/min/mg. The same compound gave an IC50 in series [7] of 2100 nM. Further, the EC50 in [9] was 1800 nM.
On to `Cc1nnc2n1-c1ccc(-n3cncn3)cc1N(c1ccc(Cl)cc1)C[C@H]2C`, for which the IC50 in series [7] was determined as 74 nM. The EC50 in [9] stood at 41 nM.
For `Cc1nnc2n1-c1ccc(S(C)(=O)=O)cc1N(c1ccc(Cl)cc1)C[C@H]2C`, in that order: 1200 nM and 670 nM.
Turning to `Cc1nnc2n1-c1ccccc1N(c1ccc(Cl)cc1)C(C)C2` (stereo not given), the fraction unbound in series [1] is 0.03; in series [8] it was 0.02. Moreover, the microsomal CLint in series [4] worked out at 65 µL/min/mg; in series [10], 25 µL/min/mg. In addition, the IC50 in series [7] came to 1200 nM. Also, in series [9], the EC50 came to 3100 nM.
Regarding `Cc1noc2c1-c1ccc(-c3cnn(CC(N)=O)c3)cc1N(c1ccc(C#N)cc1)CC2C` (stereo not given), the fraction unbound in series [1] is 0.03; in [5] it was 0.04; in series [6] it was 0.01; in series [8] it was 0.01. The microsomal CLint worked out at 22 µL/min/mg in series [2], 44 µL/min/mg in series [3], 62 µL/min/mg in series [4] and 33 µL/min/mg in series [10]. The same compound registered a 50% inhibitory concentration (IC50) in [7] of 31 nM. For the same compound, in series [9], the EC50 amounted to 67 nM.
`Cc1nnc2n1-c1ccc(-c3ccc(=O)n(C)c3)cc1N(c1ccc(Cl)cc1)C[C@H]2C`: half-maximal inhibition in [7] (IC50) required 25 nM. Also, the EC50 in series [9] came to 36 nM.
As to `Cc1noc2c1-c1ccc(-c3ccc(N)nc3)cc1N(c1ccc(C#N)cc1)CC2`, the fraction unbound in [1] is 0.01; in series [5], less than 0.01; in series [6], less than 0.01; in [8], less than 0.01. For the same compound, the microsomal CLint in series [2] was found to be 165 µL/min/mg; in series [3] it was 101 µL/min/mg; in series [4], 195 µL/min/mg; in [10], 86 µL/min/mg. Besides, in series [7], the IC50 worked out at 64 nM. Further, in series [9], the EC50 was 380 nM.
For `Cc1noc2c1-c1ccccc1N(c1ccc(C#N)cc1)CC2`, the fraction unbound in [1], in series [5], in series [6] and in [8] was less than 0.01 in each case. The microsomal CLint in series [2] was 18 µL/min/mg; in series [3] it was 22 µL/min/mg; in series [4] it was 24 µL/min/mg; in series [10] it was 17 µL/min/mg. In series [7], this compound registered an IC50 of 550 nM. Also, the EC50 in [9] was determined as 4600 nM.
With `Cc1noc2c1-c1ccc(-c3ccc(=O)n(C)c3)cc1N(c1ccc(C#N)cc1)CC2C` (stereo not given), the fraction unbound in series [1] was 0.03; in series [5], 0.01; in series [6], 0.02; in series [8], 0.02. The microsomal CLint turned out to be 65 µL/min/mg in series [2], 64 µL/min/mg in series [3], 71 µL/min/mg in series [4] and 52 µL/min/mg in series [10]. The compound further showed an IC50 in series [7] of 32 nM. Further, the EC50 in [9] is 94 nM.
As to `Cc1noc2c1-c1ccc(-c3cnn(C)c3)cc1N(c1ccc(C#N)cc1)CC2CC(N)=O` (stereo not given), the fraction unbound in series [1] is 0.06; in series [5], 0.04; in [6] it was 0.02; in series [8] it was 0.01. For the same compound, the microsomal CLint is 69 µL/min/mg in [2], 37 µL/min/mg in series [3], 22 µL/min/mg in series [4] and 27 µL/min/mg in series [10]. Also, the IC50 in series [7] stood at 310 nM. The EC50 in [9] amounted to 810 nM.
`Cc1nnc2n1-c1ccccc1NCC2` yielded an IC50 in [7] of 62000 nM. That is a double-digit micromolar value.
Regarding `Cc1nnc2n1-c1ccc(C(N)=O)cc1N(c1ccc(Cl)cc1)C[C@H]2C`, half-maximal inhibition in series [7] (IC50) required 65 nM. For the same compound, the EC50 in series [9] came to 96 nM.
For `Cc1noc2c1-c1ccc(-c3ccc(N)nc3)cc1N(c1ccc(C#N)cc1)CC2C` (stereo not given), the fraction unbound in series [1] was 0.02; in series [5], 0.01; in [6] it was less than 0.01; in series [8], less than 0.01. Besides, the microsomal CLint in series [2] came to 240 µL/min/mg; in [3], 44 µL/min/mg; in series [4], 210 µL/min/mg; in series [10] it was 62 µL/min/mg. In series [7], this compound gave an IC50 of 36 nM. Moreover, the EC50 in series [9] came to 78 nM.
Regarding `Cc1nnc2n1-c1ccc(-c3cnn(C)c3)cc1N(c1ccc(Cl)cc1)CC2`, the fraction unbound in series [1] is 0.05; in [5], 0.03; in series [6] it was 0.04; in [8] it was 0.04. Moreover, the microsomal CLint in [2] turned out to be 91 µL/min/mg; in series [3], 77 µL/min/mg; in series [4], 154 µL/min/mg; in series [10], 14 µL/min/mg. Moreover, in [7], the IC50 was 44 nM. Also, in series [9], the EC50 was 130 nM.
